Calls of active or inactive are those of the source. No cut-off for these calls is given here.
How the values were obtained:
Mus musculus [1] = assay: Protection against castor oil-induced diarrhea in C57BL/6 mouse assessed as improvement in body weight at 10 mg/kg, po pretreated for 15 mins followed by castor oil addition measured over 4 hrs; assay type: functional, organism-based
Mus musculus [2] = assay: Protection against castor oil-induced diarrhea in C57BL/6 mouse assessed as improvement in stool consistency at 10 mg/kg, po pretreated for 15 mins followed by castor oil addition measured over 4 hrs; assay type: functional, organism-based
Mus musculus [3] = assay: Protection against castor oil-induced diarrhea in C57BL/6 mouse assessed as improvement in fecal output at 10 mg/kg, po pretreated for 15 mins followed by castor oil addition measured over 4 hrs; assay type: functional, organism-based
[4] = biological target: T1, 5-hydroxytryptamine receptor 2B (Homo sapiens, UniProt P41595); assay: Displacement of [3H]LSD from 5HT2B (unknown origin) after 1.5 hrs by microbeta scintillation counting method
[5] = biological target: T1, 5-hydroxytryptamine receptor 2B; assay: (§1) Antagonist activity at 5HT2B (unknown origin) expressed in CHOK1 cells assessed as inhibition of agonist-induced effect preincubated for 60 mins at 37 degC followed by 15 mins incubation at room temperature and subsequent agonist addition measured for 100 secs by fluorescence assay; assay type: functional, cell-based
[6] = biological target: T1, 5-hydroxytryptamine receptor 2B; assay: as §1, with “effect at 10 uM” for “effect”, “assay relative to control” for “assay”; assay type: functional, cell-based

T1 sequence (P41595 whole entry): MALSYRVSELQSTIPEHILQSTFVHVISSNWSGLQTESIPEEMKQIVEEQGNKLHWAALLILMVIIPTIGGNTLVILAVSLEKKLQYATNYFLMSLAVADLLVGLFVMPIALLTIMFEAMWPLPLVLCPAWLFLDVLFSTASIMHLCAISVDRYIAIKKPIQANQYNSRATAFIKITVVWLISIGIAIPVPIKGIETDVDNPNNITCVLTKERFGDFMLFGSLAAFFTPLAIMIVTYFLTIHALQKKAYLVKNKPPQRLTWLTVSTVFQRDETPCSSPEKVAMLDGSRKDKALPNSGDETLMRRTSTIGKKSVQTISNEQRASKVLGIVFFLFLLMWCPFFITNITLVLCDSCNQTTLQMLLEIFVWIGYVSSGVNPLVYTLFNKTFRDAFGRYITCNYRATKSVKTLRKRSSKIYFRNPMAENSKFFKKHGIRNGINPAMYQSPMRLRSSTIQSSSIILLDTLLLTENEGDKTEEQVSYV

| SMILES | Ki [4] | IC50 [5] | other results |
| --- | --- | --- | --- |
| CN(C)CC/C=C1\c2ccc(Br)cc2COc2ccccc21 | 2.5 nM | – | Activity (Mus musculus [1]): Active; Activity (Mus musculus [2]): Active; Activity (Mus musculus [3]): Active |
| NC1=NC2(CCCCC2)NC(Nc2cccc(I)c2)=N1 | 1.7 nM | 23.3 nM | – |
| NC1=NC2(CCCCC2)NC(Nc2cc(Br)cc(Br)c2)=N1 | – | 215 nM | – |
| NC1=NC2(CCCCC2)NC(Nc2cccc(Cl)c2)=N1 | 6.3 nM | 46.9 nM | – |
| NC1=NC2(CCCCC2)NC(Nc2cccc(Br)c2)=N1 | 5.8 nM | 35.4 nM | – |
| NC1=NC2(CCCCC2)NC(Nc2cccc(O)c2)=N1 | 313 nM | – | inhibition [6]: < 50% |
| NC1=NC2(CCCCC2)NC(Nc2cc(F)cc(Br)c2)=N1 | – | 74.9 nM | – |
| CN(C)CC/C=C1\c2ccccc2COc2ccccc21 [E-DOXEPIN] | – | – | Activity (Mus musculus [2]): Active; Activity (Mus musculus [3]): Active |
| NC1=NC2(CCCCC2)NC(Nc2cccc(F)c2)=N1 | 53.3 nM | 403 nM | – |
| CN(C)CC/C=C1\c2ccc(F)cc2COc2ccccc21 | 16.6 nM | – | – |
| CCOC(=O)c1cc(Br)cc(NC2=NC(N)=NC3(CCCCC3)N2)c1 | – | 1960 nM | – |
| NC1=NC2(CCCCC2)NC(Nc2ccccc2)=N1 | 151 nM | 1640 nM | – |
| Cc1cccc(NC2=NC(N)=NC3(CCCCC3)N2)c1 | 19.8 nM | 459 nM | – |
| CN(C)CC/C=C1\c2ccc(Cl)cc2COc2ccccc21 | 3 nM | – | – |

From ChEMBL document CHEMBL4266008, “Exploring Halogen Bonds in 5-Hydroxytryptamine 2B Receptor-Ligand Interactions” (ACS Med Chem Lett, 2018)
